Measured values taken from PMC8746705, “Comparison of Experimental Strategies to Study L-Type Amino Acid Transporter 1 (LAT1) Utilization by Ligands” (Molecules, 2021).

Columns and labels:
LAT1 [1] = biological target: T1, LAT1 (Mus musculus, UniProt Q9Z127); assay: Cis-inhibition of radiolabelled LAT1-probe substrate uptake into BV2 cells; assay type: cell-based; conditions: for IC50: 5 min, mean ± SD; for Inhibition of LAT1-probe substrate uptake / LAT1 affinity: over all probe substrates
Method in brief: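 Mouse BV2 cells preincubated 10 min at 37 °C in choline-based HBSS pH 7.4, then 5 min uptake of [14C]-L-leucine (0.2 µCi/mL) or [3H]-methionine, -tryptophan or -kynurenine (2 µCi/mL) with 0.1–1000 μM compound. Cell radioactivity counted by liquid scintillation after lysis. IC50 by nonlinear regression.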

LAT1 [2] = biological target: T1, LAT1; assay: Inhibition type of [14C]-L-Leu uptake (Hanes-Woolf plots) in BV2 cells; assay type: cell-based; conditions: for Vmax of [14C]-L-Leu uptake: 0.010–0.20 µM [14C]-L-Leu in the presence of the compound at its IC50, mean ± SD, n = 3–4; for Vmax of [14C]-L-Leu uptake / Inhibition Type: BV2; for IC50: Table 2, compound concentration used in the inhibition type study, corresponding to IC50 of [14C]-L-Leu uptake; for Inhibition Type: of [14C]-L-Leu uptake, concluded from Km and Vmax
Method in brief: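 BV2 cells preincubated 10 min at 37 °C in Na+-free choline HBSS (pH 7.4), then exposed to 0.010–0.20 μM [14C]-L-leucine plus compound at IC50-guided concentration; uptake counted by liquid scintillation. Km and Vmax derived by linear regression of Hanes-Woolf plots ([S]/v vs substrate).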

[3] = Time-dependent cellular uptake of compounds into BV2 cells (LC-MS/MS); assay type: cell-based, mouse; conditions: mouse, BV2 microglia cells, 100 µM compound, 1–60 min, mean ± SD, n = 3, read-out: T½ of cellular uptake
Method in brief: (§1)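 BV2 cells were incubated with 100 μM compound in HBSS at 37 °C for 1–60 min, washed ice-cold and lysed in 0.1 M NaOH. Intracellular compound was quantified by positive-mode ESI LC-MS/MS against internal-standard calibration curves and normalised to Bradford protein content.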

[4] = system: immortalized mouse microglia (BV2); assay: as above; assay type: cell-based; conditions: for Max. cellular uptake: 100 µM compound, 1–60 min, mean ± SD, n = 3
Method in brief: as §1

LAT1 [5] = biological target: T1, LAT1; assay: Cellular uptake of compounds in the presence of LAT1-inhibitor (KMH-233); assay type: cell-based; conditions: 100 µM compound, 100 µM KMH-233, 30 min, BV2
Method in brief: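 Cells were pre-exposed 10 min to 100 µM KMH-233, then incubated 30 min in HBSS with 100 µM compound plus inhibitor. Intracellular compound was quantified by LC-MS against a spiked standard curve and normalised to protein.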

[6] = system: immortalized mouse microglia (BV2 cells); assay: Cellular viability (resazurin / Alamar blue); assay type: cell-based; conditions: 72 h
Experimental: Immortalized microglia (BV2 cells) were seeded at the density of 10 × 10^3 cells/well onto collagen-coated 96-well plates. The cells were used for the proliferation experiments one day after seeding. The studied compounds (50 and 100 µM) were added into the growth medium and incubated for 3 days (the medium was replaced with a fresh one with studied compounds after daily measurements). Each day the cell viability was determined by the resazurin cell proliferation kit (MilliporeSigma, St. Louis, MO, USA), which is directly proportional to aerobic respiration and cellular metabolism of cells. The samples were measured fluorometrically by monitoring the increase in fluorescence at λex 560 nm and λem 590 nm with the Envision plate reader (EnVision, Perkin Elmer, Inc., Waltham, MA, USA). The cell viability was also followed by visualizing the wells with microscopy. The ability of compounds to inhibit the viability of the cells was expressed as percentages (%) compared to the untreated controls.

[7] = probe [3H]-L-Kynu, n = 3–4, read-out: IC50 of [3H]-L-Kynu uptake
[8] = probe [3H]-L-Met, n = 3–4, read-out: IC50 of [3H]-L-Met uptake
[9] = probe [3H]-L-Trp, n = 3–4, read-out: IC50 of [3H]-L-Trp uptake
[10] = probe [14C]-L-Leu, n = 3–4, read-out: IC50 of [14C]-L-Leu uptake
[11] = higher concentrations (>100 µM)

T1 sequence (Q9Z127 whole entry): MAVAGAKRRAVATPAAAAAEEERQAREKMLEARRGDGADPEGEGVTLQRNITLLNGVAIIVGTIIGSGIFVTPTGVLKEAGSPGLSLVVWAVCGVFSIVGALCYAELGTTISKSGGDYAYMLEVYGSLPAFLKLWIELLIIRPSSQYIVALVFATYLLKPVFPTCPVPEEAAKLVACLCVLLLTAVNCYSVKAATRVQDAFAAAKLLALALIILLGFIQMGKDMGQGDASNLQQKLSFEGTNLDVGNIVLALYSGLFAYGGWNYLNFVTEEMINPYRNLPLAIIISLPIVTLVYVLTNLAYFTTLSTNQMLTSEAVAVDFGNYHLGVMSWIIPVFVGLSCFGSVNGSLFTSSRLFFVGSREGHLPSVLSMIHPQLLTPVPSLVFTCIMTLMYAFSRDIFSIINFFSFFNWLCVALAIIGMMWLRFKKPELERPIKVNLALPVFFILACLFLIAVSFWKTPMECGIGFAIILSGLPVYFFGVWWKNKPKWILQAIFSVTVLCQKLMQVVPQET
T1 sequence (P10852 whole entry partner): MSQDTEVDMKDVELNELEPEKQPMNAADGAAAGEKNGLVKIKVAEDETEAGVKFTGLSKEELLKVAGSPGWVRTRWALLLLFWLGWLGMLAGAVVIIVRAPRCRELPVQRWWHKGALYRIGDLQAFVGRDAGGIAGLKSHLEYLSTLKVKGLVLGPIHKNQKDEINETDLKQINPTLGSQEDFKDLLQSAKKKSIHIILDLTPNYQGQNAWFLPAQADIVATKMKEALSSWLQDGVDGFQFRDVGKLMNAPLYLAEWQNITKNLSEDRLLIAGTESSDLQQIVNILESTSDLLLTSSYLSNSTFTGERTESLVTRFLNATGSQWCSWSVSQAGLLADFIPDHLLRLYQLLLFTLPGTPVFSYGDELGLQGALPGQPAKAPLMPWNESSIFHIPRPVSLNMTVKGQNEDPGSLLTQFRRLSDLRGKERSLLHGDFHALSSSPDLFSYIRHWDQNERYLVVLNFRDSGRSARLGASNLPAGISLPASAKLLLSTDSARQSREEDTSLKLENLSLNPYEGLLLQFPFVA

IC50 (LAT1 [1]; [7]) [µM]	IC50 (LAT1 [1]; [8]) [µM]	IC50 (LAT1 [1]; [9]) [µM]	IC50 (LAT1 [1]; [10]) [µM]	Vmax of [14C]-L-Leu uptake (LAT1 [2]) [nmol/min/mg]	IC50 (LAT1 [2]) [µM]	Inhibition Type (LAT1 [2])	half-life at 100 μM [3] [min]	Cellular uptake in the presence of LAT1-inhibitor (LAT1 [5])	Compound	Max. cellular uptake [4]	Effect on cell viability [6, 11]	Effect on cell viability ([6]; 50 µM)	Inhibition of LAT1-probe substrate uptake / LAT1 affinity (LAT1 [1])	LAT1-substrate or LAT1-binder ([4]; concluded from time-dependent uptake, 100 µM)
35.3 ± 1.2	26.1 ± 1.4	38.8 ± 3.1	15 ± 1.3	1.599 ± 0.170	15	Non-competitive	1.86 ± 0.42	inhibited significantly	C[C@H](C(=O)Oc1cccc(C[C@H](N)C(=O)O)c1)c1cccc(C(=O)c2ccccc2)c1 [Compound 4]	4.17 ± 0.19 nmol/mg of protein	started to impact the cell viability			
3 ± 1.5	4.3 ± 1.7	6.3 ± 1.3		1.513 ± 0.218	4	Mixed type	19.2 ± 5.71	inhibited significantly	C[C@H](C(=O)Oc1cccc(C[C@H](N)C(=O)O)c1)c1ccc(-c2ccccc2)c(F)c1 [Compound 12]	36.12 ± 4.17 nmol/mg of protein	started to impact the cell viability	minor effects on cell viability		
3.1 ± 1.3	25.3 ± 1.6	11.1 ± 1.2		1.448 ± 0.099	10	Non-competitive	12.5 ± 3.62	inhibited significantly	COc1ccc2cc([C@H](C)C(=O)Oc3cccc(C[C@H](N)C(=O)O)c3)ccc2c1 [Compound 15]	29.09 ± 2.84 nmol/mg of protein	started to impact the cell viability	minor effects on cell viability		
4.7 ± 1.2	1.7 ± 1.8	15.9 ± 7.8		2.422 ± 0.061	6	Non-competitive	> 300	inhibited significantly	C[C@H](C(=O)Nc1cccc(C[C@H](N)C(=O)O)c1)c1ccc(-c2ccccc2)c(F)c1 [Compound 9]	101.6 ± 86.1 nmol/mg of protein		minor effects on cell viability		
0.7 ± 0.1	8.2 ± 1.7	6.7 ± 1.6	6.8 ± 1.4	1.792 ± 0.106	7	Mixed type	9.11 ± 1.52	inhibited significantly	NC(Cc1cccc(C(=O)Oc2ccc(-c3ccc(-c4ccc5c(c4)COC5=O)s3)cc2)c1)C(=O)O (stereo not drawn) [Compound 1]	176.0 ± 9.0 nmol/mg of protein	started to impact the cell viability			
43.3 ± 1.1	> 100	> 100	> 100	1.910 ± 0.057		Un-competitive	< 1	only reductive trends were seen	COc1cc(C=CC(=O)NCc2cccc(CC(N)C(=O)O)c2)ccc1O (stereo not drawn) [Compound 5]	cannot be calculated			not able to inhibit the LAT1-probe substrate uptake very effectively	LAT1-binders rather than substrates
18.1 ± 1.2	12 ± 1.4	24.5 ± 2		1.644 ± 0.073	19	Un-competitive	2.65 ± 0.6	inhibited significantly	N[C@@H](Cc1cccc(NC(=O)c2ccccc2O)c1)C(=O)O [Compound 8]	8.05 ± 0.40 nmol/mg of protein			not able to inhibit the LAT1-probe substrate uptake very effectively	
4.3 ± 1.3	3.3 ± 1.5	9.9 ± 1.3	2.8 ± 1.5	2.759 ± 0.066	3	Mixed type	1.97 ± 0.66	inhibited significantly	C[C@H](C(=O)Nc1cccc(C[C@H](N)C(=O)O)c1)c1cccc(C(=O)c2ccccc2)c1 [Compound 2]	22.31 ± 1.34 nmol/mg of protein	started to impact the cell viability			

Compound	IC50 (LAT1 [1]; [7]) [µM]	IC50 (LAT1 [1]; [8]) [µM]	IC50 (LAT1 [1]; [9]) [µM]	IC50 (LAT1 [1]; [10]) [µM]	Vmax of [14C]-L-Leu uptake (LAT1 [2]) [nmol/min/mg]	IC50 (LAT1 [2]) [µM]	Inhibition Type (LAT1 [2])	half-life at 100 μM [3] [min]	Cellular uptake in the presence of LAT1-inhibitor (LAT1 [5])	Max. cellular uptake [4]	Effect on cell viability [6, 11]	Effect on cell viability ([6]; 50 µM)	Inhibition of LAT1-probe substrate uptake / LAT1 affinity (LAT1 [1])	LAT1-substrate or LAT1-binder ([4]; concluded from time-dependent uptake, 100 µM)
COc1cc(/C=C/C(=O)Oc2cccc(C[C@H](N)C(=O)O)c2)ccc1O [Compound 7]	96.8 ± 1.2	13.6 ± 1.8	19.8 ± 1.3	37.6 ± 1.8	2.780 ± 0.126	38	Mixed type	7.35 ± 3.44	inhibited significantly	21.14 ± 2.93 nmol/mg of protein				
